Source: patent US20260138981A1, “DIHYDROFOLATE REDUCTASE INHIBITORS FOR ANTI-BIOTIC RESISTANT INFECTIONS” (THE TRUSTEES OF PRINCETON UNIVERSITY, priority 2022, published 2026)

Key:
[1] = Pharmacokinetic analysis after single oral dose; format: in vivo, mouse; conditions: single dose 200 mg/kg PO, CD-1 mice
Description: FIG. 2A quantifies plasma concentration of fluorofolin over time after single oral administration to neutropenic CD1 mice. Each line is representative of an individual mouse.
Pharmacokinetics determination: Care and handling of male CD-1 mice approximately 6-8 weeks old conformed to institutional animal care and use policies as carried out at Pharmaron, Inc. (Beijing, ROC).
Pharmacokinetic properties were determined after a single dose of 200 mg/kg fluorofolin given PO. Plasma samples were taken from three mice at times 0.083, 0.25, 0.5, 1, 2, 4, 8, and 24 hours and quantitative analysis was performed using LC/MS/MS. Half-life was determined from plasma concentration after fluorofolin levels reached pseudo-equilibrium (4 hours for mouse 1 and 2, and 2 hours for mouse 3). Pharmacokinetic values were estimated using a non-compartmental model generated from WinNonlin 6.1. Pharmacokinetic analysis was carried out by Pharmaron, Inc. (Beijing, ROC).

[2] = system: P. aeruginosa PA01 and ATTC 27853, 5 ESKAPE pathogens; assay: Growth inhibition of bacterial panel (summary statement); conditions: PA01, ATTC 27853 and all 5 ESKAPE pathogens tested
[3] = Serum binding (plasma protein binding, dialysis); format: in vitro ADME; conditions: mouse plasma
Description: An initial t=0 sample was collected. fluorofolin was incubated with plasma for 6 hours after which dialysis was performed. After dialysis, supernatant was collected, and the amount of fluorofolin was determined by LC-MS/MS to determine the % Unbound of fluorofolin. Serum binding parameters were determined as follows: • 1. % Bound=100%−% Unbound • 2. Log K=Log (% Bound/100−% Bound) • 3. % Remaining=Area-ratio6hr/Area-ratio0hr×100% • 4. % Recovery was determined as (Area-ratiobuffer-chamber+Area-ratioplasma-chamber)/(Area-ratioTotal sample)×100 Serum binding analysis was performed by Pharmaron, Inc. (Beijing, ROC). C. elegans Maintenance and Toxicity Assay

E. coli lptD4213 = assay: Membrane potential and permeability, TO-PRO-3 and DiOC2(3) flow cytometry; format: cell-based; conditions: E. coli lptD4213, 2×MIC
Description: FIG. 5B provides flow cytometry of E. coli lptD4213 treated with 5% DMSO, 5 μM CCCP, or 2×MIC fluorofolin 0.04 μg/mL polymixin B, and 0.4 μg/mL trimethoprim and stained with TO-PRO-3 and DiOC2(3).
(§1) The ability of fluorofolin to permeabilize P. aeruginosa PA14 was examined. Specifically, flow cytometry of P. aeruginosa stained with TO-PRO-3 was used, treated the bacteria with 2×MIC, and analyzed membrane integrity. […] It was hypothesized that this decrease in membrane targeting might also decrease toxicity due to the disruption of eukaryotic membranes.
(§2) Overnight P. aeruginosa PA14 or E. coli lptD4213 cultures were diluted 1:100 and grown to mid exponential phase at 37° C. Cultures were diluted 1:10 into PBS and treated with antibiotics for 15 minutes. P. aeruginosa PA14 was stained with TO-PRO-3 (640 nm excitation, 670/30 nm emission) to measure cell membrane integrity. […] DiOC2(3) was evaluated as a ratio of green (488 nm excitation, 525/50 nm emission) to red (488 nm excitation, 610/20 nm emission) (Novo et al., 1999). […] 100,000 events were recorded for each data file. Gates for permeabilization were determined using Polymixin B (Sigma-Aldrich P1004) and untreated controls. Gates for depolarization were determined using CCCP as a positive control. Data was analyzed using FlowJo v10 software (FlowJo LLC, Ashland, OR).

purified human DHFR = biological target: T1, purified human DHFR (Homo sapiens, UniProt P00374); assay: Human DHFR in vitro assay; format: biochemical
T1 construct: purchased R&D Systems 8456-DR
Description: FIG. 1E is an analogous assay to FIG. 2B using purified human DHFR.
Human purified DHFR was purchased from R&D Systems (8456-DR). DHFR activity was assayed by monitoring the decrease in absorbance by NADPH at […]. DHFR enzyme (0.5 μg/mL), dihydrofolic acid (100 μM), and different concentrations of methotrexate, fluorofolin, or DMSO control was dissolved in 200 μL of Tris buffer (pH 7.5, Tris salt concentration 25 mM). Reaction was initiated by adding NADPH in a 10× stock (1 mM for final concentration 100 μM), and absorbance at 340 nm was monitored over time by Cytation 5 reader (Agilent). Activity was normalized to the DMSO control.

[4] = biological target: T2, purified E. coli DHFR (FolA) (Escherichia coli, UniProt P0ABQ4); assay: In vitro DHFR (FolA) activity, NADPH consumption at 340 nm; format: biochemical; conditions: Hill equation fit
T2 construct: purchased Genscript (Piscataway, NJ)

P. aeruginosa PA14 = assay: Membrane permeability, TO-PRO-3 flow cytometry; format: cell-based; conditions: PA14, 2×MIC, 15 min
Description: FIG. 5A provides flow cytometry results of PA14 stained with the membrane permeability dye TO-PRO-3. […]. The gates were determined for TO-PRO-3 staining using solvent only and polymixin B controls.
as §1, §2

Structure (SMILES): Nc1nc(N)c2c(ccc3c2ccn3Cc2ccnc(F)c2)n1 [fluorofolin]
- half-life [1]: 12.1 h
- peak concentration (plasma) [1]: 4.0 µg/mL
- concentration inhibiting growth [2]: less than 50 μg/mL
- recovery at 6 h, 1 μM [3]: 91.9%
- membrane depolarization or permeabilization (E. coli lptD4213): does not cause membrane depolarization or permeabilization
- IC50 (purified human DHFR): 14 ± 4 nM
- IC50 [4]: 2.5 ± 1.1 nM
- disruption of membranes (TO-PRO-3) (P. aeruginosa PA14): does not cause significant disruption
